Measurements reported in ChEMBL document CHEMBL1201862, “PubChem BioAssay data set” (2004).
The source made the active and inactive calls.

Columns and labels:
Protein RecA = target: T1, Protein RecA (Mycobacterium tuberculosis, UniProt P9WHJ3); assay: Fluorescence Cell-Free Homogeneous Dose Retest to Identify Inhibitors of RecA-Intein Splicing Activity. [Related pubchem assays (depositor defined):AID2097, AID2223, AID489010, AID492950]; type: functional
T1 sequence (P9WHJ3 whole entry): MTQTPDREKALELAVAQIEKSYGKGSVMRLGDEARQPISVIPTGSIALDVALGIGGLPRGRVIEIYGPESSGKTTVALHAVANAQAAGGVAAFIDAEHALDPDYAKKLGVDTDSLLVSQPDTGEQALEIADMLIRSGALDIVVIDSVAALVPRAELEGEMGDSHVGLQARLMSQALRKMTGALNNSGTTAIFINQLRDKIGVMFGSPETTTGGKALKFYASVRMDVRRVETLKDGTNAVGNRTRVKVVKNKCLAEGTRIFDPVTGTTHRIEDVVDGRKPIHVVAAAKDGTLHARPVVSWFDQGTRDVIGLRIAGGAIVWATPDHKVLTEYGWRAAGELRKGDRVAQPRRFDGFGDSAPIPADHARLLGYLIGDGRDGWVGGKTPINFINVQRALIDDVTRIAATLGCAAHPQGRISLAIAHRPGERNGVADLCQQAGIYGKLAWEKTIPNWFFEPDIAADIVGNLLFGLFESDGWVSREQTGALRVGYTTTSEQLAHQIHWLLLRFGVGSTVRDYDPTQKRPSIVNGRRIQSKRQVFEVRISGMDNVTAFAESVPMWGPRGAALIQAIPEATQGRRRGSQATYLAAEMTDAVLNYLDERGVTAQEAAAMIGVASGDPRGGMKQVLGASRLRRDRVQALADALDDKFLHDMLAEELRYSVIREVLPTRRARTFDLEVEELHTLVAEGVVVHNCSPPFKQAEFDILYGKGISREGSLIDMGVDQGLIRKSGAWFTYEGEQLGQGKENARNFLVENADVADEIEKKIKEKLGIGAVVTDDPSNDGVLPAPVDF

[1] = target: T2, Replicative DNA helicase DnaB (Mycobacterium tuberculosis, UniProt P9WMR3); assay: DnaB intein splicing inhibitors, dose response, biochemical, cell-free fluorescence (AID 449749); type: functional
T2 sequence (P9WMR3 whole entry): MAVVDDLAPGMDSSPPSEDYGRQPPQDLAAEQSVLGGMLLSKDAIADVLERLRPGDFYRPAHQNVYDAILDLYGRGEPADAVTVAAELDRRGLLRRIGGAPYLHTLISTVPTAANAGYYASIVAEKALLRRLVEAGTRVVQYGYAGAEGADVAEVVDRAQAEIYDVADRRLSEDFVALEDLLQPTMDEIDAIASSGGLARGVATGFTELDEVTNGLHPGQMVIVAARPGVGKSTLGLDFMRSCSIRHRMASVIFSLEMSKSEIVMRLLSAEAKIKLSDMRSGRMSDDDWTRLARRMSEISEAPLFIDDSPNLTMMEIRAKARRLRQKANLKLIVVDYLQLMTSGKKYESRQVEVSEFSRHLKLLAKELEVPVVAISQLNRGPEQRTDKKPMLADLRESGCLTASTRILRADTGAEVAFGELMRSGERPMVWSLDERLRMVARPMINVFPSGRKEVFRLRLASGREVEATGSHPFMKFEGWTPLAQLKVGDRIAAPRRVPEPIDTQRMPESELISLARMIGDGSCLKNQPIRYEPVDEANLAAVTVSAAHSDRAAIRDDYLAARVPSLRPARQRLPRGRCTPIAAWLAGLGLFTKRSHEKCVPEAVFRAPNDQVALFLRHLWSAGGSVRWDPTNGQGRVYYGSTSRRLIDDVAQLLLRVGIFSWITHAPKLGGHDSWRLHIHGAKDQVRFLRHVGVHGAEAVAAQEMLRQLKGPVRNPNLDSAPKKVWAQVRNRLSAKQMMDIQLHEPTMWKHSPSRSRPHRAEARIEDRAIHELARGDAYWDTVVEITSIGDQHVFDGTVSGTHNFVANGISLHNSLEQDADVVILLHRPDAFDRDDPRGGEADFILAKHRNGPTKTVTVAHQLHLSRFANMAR

[2] = microbe, parasite or virus in culture; type: functional; conditions: Mycobacterium tuberculosis
[3] = P. falciparum Dd2 growth inhibitors, dose response, SYBR Green, cherry-picked samples (AID 1159567); type: functional, cell-based
Streptokinase A = target: T3, Streptokinase A (Streptococcus pyogenes serotype M1, UniProt P10520); assay: S. pyogenes streptokinase expression inhibitors, potency, dose response, plasminogen activation absorbance, OD405 (AID 1914); type: functional, Streptococcus pyogenes M1 GAS;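 note: secreted streptokinase activity via plasminogen activation per viability signal from cell pellet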
T3 sequence (P10520 whole entry): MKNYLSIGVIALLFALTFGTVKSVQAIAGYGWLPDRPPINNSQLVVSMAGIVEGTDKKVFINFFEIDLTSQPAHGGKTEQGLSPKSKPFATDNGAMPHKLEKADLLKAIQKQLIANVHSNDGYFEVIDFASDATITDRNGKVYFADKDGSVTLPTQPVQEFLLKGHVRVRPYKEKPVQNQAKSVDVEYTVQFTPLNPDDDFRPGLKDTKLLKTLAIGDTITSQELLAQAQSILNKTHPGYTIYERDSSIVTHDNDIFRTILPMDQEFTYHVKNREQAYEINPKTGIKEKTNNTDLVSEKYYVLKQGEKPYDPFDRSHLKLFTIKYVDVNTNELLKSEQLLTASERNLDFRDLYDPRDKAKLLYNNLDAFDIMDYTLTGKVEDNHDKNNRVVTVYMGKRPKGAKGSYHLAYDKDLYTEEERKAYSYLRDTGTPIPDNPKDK

Streptococcus = assay: Group A Streptococcus viability loss, dose response, counter-screen for streptokinase expression inhibitor project, luminescence, BacTiterGlo (AID 1915); type: functional, organism-based;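 note: potency for reduction of bacterial viability or growth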
[4] = Luminescence Cell-Based Dose Retest to Confirm Inhibitors of Cancer Stem Cells. [Related pubchem assays (depositor defined):AID2717, AID2721]; type: functional; conditions: Homo sapiens
[5] = system: Streptococcus sp. 'group A'; assay: growth inhibition of control SK(-) GAS strain, dose response, counter-screen for streptokinase expression inhibitor project, luminescence, kanamycin, BacTiterGlo, confirmation (AID 1900); type: functional, organism-based
[6] = cytotoxicity toward NIH3T3 fibroblasts, dose response, counter-screen, cell-based, ATP luminescence, mouse fibroblasts (AID 2010); type: functional;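 note: cells exposed to compound for about 90 hours before reading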
[7] = growth suppression of beta-catenin-knockout colon cells, dose response, cell-based, HCT116, human colon tumor (AID 1045); type: functional;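 note: HCT116 colon tumor cells with beta catenin knocked out; cells exposed to compound for 60 hours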
[8] = inhibitors of intracellular T. cruzi replication, confirmation, NIH3T3 host cells, beta-gal luminescence (AID 2044); type: functional, cell-based;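 note: intracellular parasites grown in NIH/3T3 mouse fibroblasts as host cells; luminescent beta-galactosidase reporter signal from transgenic T. cruzi replicating inside host cells; inhibitors lower the luminescence signal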
[9] = growth suppression of PTEN-null colon cells, dose response, cell-based, HCT116 PTEN knockout (AID 1047); type: functional;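 note: HCT116 colon tumor cells with PTEN knocked out; cells exposed to compound for 60 hours before readout; potency for loss of cell viability measured by luminescence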
[10] = NIH-3T3 fibroblast cytotoxicity, dose response, cytotoxicity control, cell-based, fluorescence, Alamar Blue, secondary assay (AID 2327); type: functional;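 note: NIH-3T3 mouse fibroblasts cultured with fluconazole at 8 µg/mL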
[11] = C. albicans growth with fluconazole, confirmation, fluorescence, retest (AID 2467); type: functional, cell-based
[12] = target: T4, Heat shock factor protein 1 (Mus musculus, UniProt P38532); assay: HSF1 potentiators in luciferase reporter cells, confirmation, cell-based, NIH3T3, luminescence, dose retest (AID 435004); type: functional;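 note: stress induced by proteasome inhibitor MG132 added 30 min after compound; luciferase reporter driven by HSF1 response element in NIH3T3 cells; actives raise luminescence as potentiators of the MG132 stress response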
T4 sequence (P38532 whole entry): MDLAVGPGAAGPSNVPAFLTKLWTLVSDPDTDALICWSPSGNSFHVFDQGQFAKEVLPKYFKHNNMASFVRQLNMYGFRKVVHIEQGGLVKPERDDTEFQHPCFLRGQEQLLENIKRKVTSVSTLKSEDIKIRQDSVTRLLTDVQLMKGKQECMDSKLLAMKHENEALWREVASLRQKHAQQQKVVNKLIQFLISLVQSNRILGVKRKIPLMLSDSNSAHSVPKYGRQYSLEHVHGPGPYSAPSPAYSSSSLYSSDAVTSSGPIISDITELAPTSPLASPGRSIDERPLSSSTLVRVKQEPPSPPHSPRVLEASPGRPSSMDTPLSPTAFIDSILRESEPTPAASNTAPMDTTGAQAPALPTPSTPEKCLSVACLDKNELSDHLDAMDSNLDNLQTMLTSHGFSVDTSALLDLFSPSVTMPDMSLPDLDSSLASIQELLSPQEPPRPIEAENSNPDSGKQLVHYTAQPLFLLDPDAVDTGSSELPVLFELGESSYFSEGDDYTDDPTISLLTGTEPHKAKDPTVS

[13] = Shn3 3'UTR reporter inhibitors, dose response, cell-based, Clone20 osteoblasts, firefly luciferase, cherry-picked (AID 624132); type: functional;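 note: firefly luciferase luminescence from reporter carrying the Shn3 3'UTR in osteoblasts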

Row | Structure (SMILES) | EC50 (Protein RecA) | AC50 [1] | AC50 [3] | other results
1 | COc1ccc(S(=O)(=O)c2cnc3ccccc3n2)cc1 | 16.4 µM (active) | 54.1 µM (active) | – | –
2 | Cc1ccc2nc(-c3cccs3)oc(=O)c2c1 | 60.5 µM (active) | 117 µM (active) | – | –
3 | Cc1ccc(C(C(=O)NCC2CCCO2)N(Cc2ccccc2)C(=O)c2ccc(-c3ccccc3)[nH]2)o1 (stereo not given) | – | – | – | CC50 [2]: > 40 µM (active)
4 | CC(C(=O)NC(=O)NC1CCCCC1)N(C)CC(=O)Nc1ccc(F)c(F)c1F (stereo not given) | – | – | – | CC50 [2]: 25.8 µM (active)
5 | CCCC(=O)N1CCC2(CC1)CN(Cc1cccnc1)[C@@H](CO)c1[nH]c3cc(OC)ccc3c12 | – | – | 5.19 µM (active) | –
6 | Cc1nc2c(-c3ccc(F)cc3)c(C)nn2c(O)c1Cl | 11 µM (active) | 31.1 µM (active) | – | –
7 | COc1ccc2c3c([nH]c2c1)[C@@H](CO)N(Cc1ccccc1F)CC31CN(C(=O)C2CCC2)C1 | – | – | 7.2 µM (active) | –
8 | Cc1cc(NC(=O)c2cc(-c3ccncc3)nc3c(C)cccc23)no1 | – | – | – | CC50 [2]: 9.08 µM (active)
9 | C[C@@H]1CN([C@@H](C)CO)C(=O)c2c(c3ccccc3n2C)-c2ccccc2CO[C@H]1CN(C)Cc1cccc(C(F)(F)F)c1 | – | – | 3.05 µM (active) | –
10 | C[C@@H]1CN([C@@H](C)CO)C(=O)c2c(c3ccccc3n2C)-c2ccccc2CO[C@H]1CN(C)C(=O)Nc1ccc(-c2ccccc2)cc1 | – | – | 3.77 µM (active) | –
11 | CCOC(=O)CN=C(S)n1cnc(N)n1 | – | – | – | CC50 [2]: > 40 µM (active)
12 | CC(C)(C)[C@@H]1CCC(=O)N(CC[C@H](Sc2ccccc2)c2ccccc2)CC1 | – | – | – | EC50 (Streptokinase A): > 150 µM (not active); EC50 (Streptococcus): 5.87 µM (active); AC50 [4]: 3.92 µM (active); EC50 [5]: 6.49 µM (active)
13 | NC(=O)CC[C@@H]1NC(=O)[C@H](CO)NC(=O)c2cc([N+](=O)[O-])cc(I)c2NCC[C@@H](C(N)=O)NC1=O | 13.3 µM (active) | 47.5 µM (active) | – | –
14 | CCOc1cc(/C=C2/C(=N)N3C(=NC2=O)SN=C3S(=O)(=O)C(C)C)ccc1OC(=O)c1ccco1 | 18.6 µM (active) | > 380 µM (inactive) | – | –
15 | CCCCCCCCCCC[C@@H](C[C@@H]1OC(=O)[C@H]1CCCCCC)OC(=O)[C@H](CC(C)C)NC=O [ORLISTAT] | – | – | – | CC50 [2]: 37.9 µM (active)
16 | CCn1c(COc2cccc3ccccc23)nnc1SCC(N)=O | > 380 µM (inactive) | 273 µM (active) | – | –
17 | Cc1nn(Cc2ccccc2)c2c1C(c1cccnc1)C(C#N)=C(N)O2 (stereo not given) | 2.78 µM (active) | 8.8 µM (active) | – | –
18 | C/C=C/c1ccc([C@@H]2[C@@H](CO)N(CC3CCCC3)C23CN(S(=O)(=O)CC)C3)cc1 | – | – | 4.7 µM (active) | –
19 | CC(C)S(=O)(=O)C1=NSC2=NC(=O)/C(=C\c3ccc(OC(=O)c4ccco4)cc3)C(=N)N21 | 10.9 µM (active) | 17 µM (active) | – | –
20 | C[C@H]1CN([C@@H](C)CO)C(=O)c2cc(NC(=O)Cc3cn(C)c4ccccc34)ccc2O[C@H]1CN(C)S(=O)(=O)c1cccs1 | – | – | 6.48 µM (active) | –
21 | CC1=NN(c2ccc(N)cc2)C(=O)C1 | 1.78 µM (active) | 2.41 µM (active) | – | –
22 | O=c1cc(-c2c(F)c(F)c(F)c(F)c2F)oc2c(F)c(F)c(F)c(F)c12 | 2.92 µM (active) | 7.17 µM (active) | – | EC50 [6]: 1.04 µM (active); EC50 [7]: 3.37 µM (active); EC50 [8]: 0.663 µM (active); EC50 [9]: 5.95 µM (active); EC50 [10]: 2.66 µM (inconclusive); EC50 [11]: 0.52 µM (active)
23 | COc1ccc2c3c([nH]c2c1)[C@H](CO)N(Cc1ccccc1Cl)CC31CN(C(=O)C2CC2)C1 | – | – | 5.65 µM (active) | –
24 | COC(=O)C(C)Sc1ncnc2c1nnn2-c1ccc(F)cc1 (stereo not given) | 5.09 µM (active) | 5.57 µM (active) | – | EC50 [12]: 11.6 µM (active)
25 | CNS(=O)(=O)c1cccc(C(=O)OCc2cc(C(C)=O)ccc2OC)c1 | – | – | – | AC50 [13]: 11.2 µM (active)
26 | O=C(Cc1ccncc1)N1CC[C@@H]2[C@@H](CO)Nc3ccc(-c4cccc(F)c4)cc3[C@@H]21 | – | – | 3.43 µM (active) | –
27 | COc1ccc(-c2ccc([C@@H]3[C@@H](CO)N4C(=O)CN(C(=O)C5CCCC5)C[C@@H]34)cc2)cc1 | – | – | 4.83 µM (active) | –
28 | O=C1NC(c2ccc(-c3ccccc3[N+](=O)[O-])o2)C(C(=O)c2ccc(F)cc2)C(O)(C(F)(F)F)N1 (stereo not given) | > 380 µM (inconclusive) | 13.3 µM (active) | – | –
